“Also recorded” adds a separate entry of the source.

Consider one compound from patent publication US20240101540A1, “TARGETED PROTEIN DEGRADATION OF PARP14 FOR USE IN THERAPY” (Ribon Therapeutics, Inc., priority 2022, published 2024).

Test [1] relates to Alternaria asthma mouse model. The test can be described thus: Alternaria asthma mouse model: cell counts and cytokines in BALF. It counts as in vivo. The conditions noted are these: Alternaria-challenged male Balb/c mice, 30, 100, 300, 1000 mg/kg once daily for 7 days by oral gavage, vs vehicle control (P<0.05), dose-dependent starting from 100 mg/kg. As for the experimental part: The effect of Compound 64 was studied in an Alternaria asthma mouse model. On days 1-5, male Balb/c mice under isoflurane anesthesia were challenged by instilling a solution of 5 μg (protein weight) Alternaria in 40 μL of PBS into each nostril. Sham-treated mice were administered 40 μL of PBS into each nostril. Compound 64 was administered two days prior to Alternaria challenge (defined day as day −1) and animals were treated with vehicle (0.5% methylcellulose+0.2% Tween 20) or Compound Y (30, 100, 300, 1000 mg/kg) once daily for 7 days (defined as day −1 to day 5) by oral gavage. Total and differential cell counts of the BALF fluid samples were measured using a XT-2000iV analyzer (Sysmex). Cytokine concentrations of BALF supernatant were measured in samples from all groups using ELISA kit (Biotechne, UK).
Statistical significance is calculated using one-way ANOVA followed by Dunnett's post-tests in which the treatment groups were compared to vehicle control (P<0.05).

Test [2] deals with T1, catalytic domain of human PARP14 (residues 1611 to 1801) with NanoLuc tag (Homo sapiens, UniProt Q460N5).
T1 construct: expressed in transfected cells; host or cells: HEK-293T cells (ATCC), pcDNA3.1(-) vector
T1 sequence (Q460N5 1611-1801): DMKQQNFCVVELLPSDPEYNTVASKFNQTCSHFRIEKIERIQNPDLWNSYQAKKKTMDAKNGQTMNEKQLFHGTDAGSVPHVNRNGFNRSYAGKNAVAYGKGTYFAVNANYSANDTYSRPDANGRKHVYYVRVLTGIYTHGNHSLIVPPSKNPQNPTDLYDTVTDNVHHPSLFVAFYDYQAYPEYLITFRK
Kind of test: NanoLuc assay for the degradation of PARP14 (NanoLuc-tagged PARP14 overexpressed in HEK-293T cells, 2 hours). It counts as cell-based. The conditions noted are these: Assay A (Example A): NanoLuc-tagged PARP14 degradation in HEK-293T cells, read-out: DC50.

By DC50 is commonly meant the concentration giving 50% degradation. `O=C1CCC(Nc2ccc(N3CCN(CCN4CCC(COc5cc(F)c6c(=O)[nH]c(CSC7CCOCC7)nc6c5)CC4)CC3)c(F)c2)C(=O)N1` (racemic) [Example 64, 3-((3-fluoro-4-(4-(2-(4-(((5-fluoro-4-oxo-2-(((tetrahydro-2H-pyran-4-yl)thio)methyl)-3,4-dihydroquinazolin-7-yl)oxy)methyl)piperidin-1-yl)ethyl)piperazin-1-yl)phenyl)amino)piperidine-2,6-dione]: in test [1] (ELISA of BALF supernatant), the “cytokine IL-4 in BALF” value was “significantly reduces”, the “cytokine IL-5 in BALF” value is reported as “significantly reduces” and the “cytokine IL-33 in BALF” value was “significantly reduces”. Further, in test [1], the “eosinophils in BALF” value is “significantly reduces” and the “total cell counts in BALF (Alternaria-induced cell infiltration)” value was “significantly reduces; also recorded: dose-dependent reduction”. In addition, the DC50 in test [2] is less than 100 nM.
